Assay [1] concerns the target xanthine oxidase (UniProt P80457). Briefly: Xanthine oxidase inhibitory activity assay, spectrophotometric at 295 nm. In kind it is biochemical.
Description: A reaction mixture containing 200 mM sodium pyrophosphate buffer (pH 7.5), 100 mM xanthine and 0.05 unit xanthine oxidase was prepared. […] All determinations were performed in triplicate and samples were tested further to ascertain the corresponding IC50 values.
For assay [2], the system named is phosphodiesterases. Briefly: Phosphodiesterase inhibitory activity assay, bis(p-nitrophenyl phosphate), 405 nm. In kind it is biochemical. The protocol: The inhibitory effect on phosphodiesterases was measured spectrophotometrically at 405 nm. A reaction mixture containing 300 μl of 100 mM Tris buffer (pH 8.9), 600 μl of 1 mM Bis(p-nitrophenyl phosphate), 100 μl of sample and 100 μl of enzyme was used for analysis. The absorption increments at 405 nm indicated formation of […] at room temperature, and the initial velocity was calculated. The inhibitory activity of phosphodiesterases was assessed as % inhibition=(1−β/α)×100, where α is the change in absorbance per minute without the sample (A blank with enzyme−A blank without enzyme), and β is the change in absorbance per minute with the sample (A test with enzyme−A test without enzyme).

[3] abbreviates: Table 3, triplicate, read-out: IC50 ± SEM.
Where [4] appears, read: unit inferred, read-out: IC50 on xanthine oxidase.

Where a name gives a salt, the structure may show the parent alone. Read-outs that look alike come from different tables or passages of the source.

Turning to `Nc1nc(Cl)c2nc[nH]c2n1` [2-Amino-6-chloropurine], the 50% inhibitory concentration (IC50) in assay [1] (setting [3]) is above 200 µM.
On the same count and under the same terms, to `Cc1ccc2[nH]cnc2c1` [5-Methylbenzimidazole] belongs above 200 µM; to `Nc1ncc2[nH]cnc2n1` [2-Aminopurine], above 200 µM.
In the case of `O=[N+]([O-])c1ccc2[nH]cnc2c1` [5-Nitrobenzimidazole nitrate salt], in assay [1] (setting [4]), the concentration for half-maximal inhibition (IC50) turned out to be 86.84 ± 0.51 µM.
For the compound `Nc1nc(N)c2[nH]cnc2n1` [2,6-Diaminopurine], in assay [1] (setting [3]), the IC50 was above 200 µM.
Same read-out and setting: the result for `Cc1cc2nc[nH]c2cc1C` [5,6-Dimethylbenzimidazole] reads above 200 µM; that for `COc1nc(N)nc2nc[nH]c12` [6-O-Methylguanine], above 200 µM.
For the compound `O=C(O)/C=C(\CC(=O)O)C(=O)O` [trans-aconitic acid], the “phosphodiesterase inhibitory activity” value in assay [2] is listed as “phosphodiesterase inhibitor”.
Consider `Nc1ncnc2[nH]ncc12` [4-Aminopyrazolo[3,4-d]pyrimidine], for which, in assay [1] (setting [4]), the IC50 is 30.26 ± 0.23 µM.
Turning to `Nc1nc2nc[nH]c2c(=S)[nH]1` [6-Thioguanine], the IC50 in assay [1] (setting [4]) is 92.42 ± 0.62 µM.

The term IC50 denotes the concentration that inhibits the measured activity by half.

The record behind these values is patent US20080089957A1, “Monocotyledon plant indications extract compositions, method of preparation and pharmaceutical compositions containing them” (priority 2006, published 2008).
